Laboratory results as given in patent US20250381179A1, “CHROMAN-BASED COMPOUNDS FOR TREATING CANCER” (priority 2024, published 2025).
Where two headings read alike, the source gives them in different places.

Key:
[1] = test system: CYP1A2; test: CYP1A2 induction in hepatocytes (activity, mRNA); type: in vitro ADME; conditions: for CYP1A2 mRNA expression increase: 1 of 3 hepatocyte donors
[2] = Exposure after repeat oral administration in GLP toxicology study, dogs; type: in vivo
Source text: (§1) There were no marked sex-based differences in exposure, but in the 28-day toxicity study of compound (1-g) in rats, exposures were 1.4 to 1.9-fold higher in female rats compared to males.

[3] = test system: CYP2B6; test: CYP2B6 induction in vitro (activity, mRNA); type: in vitro ADME
[4] = test system: CYP3A4; test: CYP3A4 induction in vitro (activity, mRNA); type: in vitro ADME
[5] = Exposure after repeat oral administration in GLP toxicology study, rats; type: in vivo
Source text: as §1

[6] = biological target: CYP1A2 (Homo sapiens, UniProt P05177); test: CYP1A2 direct inhibition; type: in vitro ADME; conditions: highest concentration evaluated (10 μM)
[7] = Phase 1 study: plasma pharmacokinetics in patients; type: in vivo, human; conditions: for conversion to compound (1-h) in patients: plasma PK after oral dosing
Protocol: All patients received compound (1-g) orally. The time of day for administration of compound (1-g) was consistent. Compound (1-g) was taken whole with liquid(s) and with food in the morning. The patient avoided taking other medications at the same time as compound (1-g). When possible, the patient took other medications in the evening or separated by a minimum of 4 hours following compound (1-g) dosing. On scheduled PK collection days (Cycle 1 Day 1, Cycle 1 Day 15, and Day 1 of Cycles 2, 3, 4, and 6) patients were instructed to wait until they arrive at the study center to take their study drug when told. If a patient missed a dose of compound (1-g), the patient was required to take the dose as soon as possible, but not less than 12 hours before the next dose is due. If vomiting occurred after taking the study treatment, the patient was instructed not to retake the dose and record the dose recorded as taken in the dosing diary, noting that the patient vomited and marking the time of vomiting. Patients were instructed to take the next scheduled dose of compound (1-g).
The plasma PK parameters (including AUC(0-∞), AUC(0-τ), Cmax, tmax, and T1/2) of compound (1-g) following oral administration was assessed by analysis of blood samples. During treatment, PK blood samples were taken at approximately the following time points: • Cycle 1 Day 1, and Day 15: pre-dose; at 1, 2, and 4-hour post-dose (±5 min); 6 and 8-hour post-dose (±10 min); and 24 hours post-dose (+1 hour); • Cycle 2, 3, 4, and 6 Day 1: pre-dose only.
Plasma concentrations of compound (1-g) were used to calculate the PK parameters. These parameters were listed by individual patient and summarized by descriptive statistics (means, medians, ranges, standard deviations, and coefficients of variation as appropriate) by cohort.
Compound (1-g) was administered orally to patients once a day at 100, 200, 300 mg, 400 mg, and 600 mg doses.

[8] = biological target: human cytochrome P450 CYP3A5 (Homo sapiens, UniProt P20815); test: In vitro metabolism by CYP3A5; type: in vitro ADME
[9] = in vivo; conditions: male, rat, po

Chain of CYP1A2 (Homo sapiens, UniProt P05177) (P05177 whole entry): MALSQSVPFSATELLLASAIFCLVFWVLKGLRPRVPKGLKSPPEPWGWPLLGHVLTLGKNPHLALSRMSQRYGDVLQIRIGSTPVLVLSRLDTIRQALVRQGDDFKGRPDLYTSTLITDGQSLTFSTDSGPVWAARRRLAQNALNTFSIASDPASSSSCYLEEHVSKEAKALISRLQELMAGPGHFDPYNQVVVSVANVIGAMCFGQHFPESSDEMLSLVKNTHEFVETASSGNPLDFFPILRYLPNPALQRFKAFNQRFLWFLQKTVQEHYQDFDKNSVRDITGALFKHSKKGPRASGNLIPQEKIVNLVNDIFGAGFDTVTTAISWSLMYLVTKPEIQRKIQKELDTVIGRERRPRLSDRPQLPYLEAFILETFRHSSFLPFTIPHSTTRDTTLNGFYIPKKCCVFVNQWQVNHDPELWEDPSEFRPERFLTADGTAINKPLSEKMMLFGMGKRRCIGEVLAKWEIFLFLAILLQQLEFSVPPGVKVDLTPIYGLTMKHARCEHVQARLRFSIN
Chain of human cytochrome P450 CYP3A5 (P20815 whole entry): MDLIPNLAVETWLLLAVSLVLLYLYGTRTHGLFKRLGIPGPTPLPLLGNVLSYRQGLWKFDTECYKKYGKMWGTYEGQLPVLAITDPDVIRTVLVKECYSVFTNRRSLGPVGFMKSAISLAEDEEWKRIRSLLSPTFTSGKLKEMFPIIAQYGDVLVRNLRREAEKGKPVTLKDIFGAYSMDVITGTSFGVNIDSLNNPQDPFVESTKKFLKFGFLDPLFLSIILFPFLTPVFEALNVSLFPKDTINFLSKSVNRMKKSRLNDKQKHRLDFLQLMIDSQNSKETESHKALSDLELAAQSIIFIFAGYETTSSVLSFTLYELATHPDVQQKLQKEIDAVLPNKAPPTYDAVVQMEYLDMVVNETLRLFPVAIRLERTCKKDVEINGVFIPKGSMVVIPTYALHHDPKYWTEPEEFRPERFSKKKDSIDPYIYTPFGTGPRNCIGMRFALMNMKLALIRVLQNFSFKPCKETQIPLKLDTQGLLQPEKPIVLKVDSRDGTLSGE

O=C1CC[C@H](N2Cc3cc(N4CCN(CC5CCN(c6ccc([C@@H]7c8ccc(O)cc8OC[C@@H]7c7ccccc7)cc6F)CC5)CC4)ccc3C2=O)C(=O)N1 [compound (1-g), (S)-3-(5-(4-((1-(2-fluoro-4-((3S,4R)-7-hydroxy-3-phenylchroman-4-yl)phenyl)piperidin-4-yl)methyl)piperazin-1-yl)-1-oxoisoindolin-2-yl)piperidine-2,6-dione]
CYP1A2 mRNA expression increase ([1]; 0.5 μM (372 ng/mL)): 1.4 fold | CYP1A2 mRNA expression increase ([1]; 2 μM): 3.1 fold | CYP1A2 enzyme activity induction ([1]; hepatocytes): no induction of CYP1A2 enzyme activity was observed | severely toxic dose in 10% of animals (STD10) (female, rat, in vivo, po, 28 day): 270 mg/kg/day | off-target adverse toxicities (rat, in vivo): no off-target adverse toxicities observed | key organ effects (rats, 28-day GLP): considered on target pharmacological effects | accumulation with repeated dosing [2]: No significant accumulation | change of exposure following repeat dosing ([2]; 45 mg/kg/day): decreased in females and slightly decreased in males | dose proportionality of exposure ([2]; 5 to 45 mg/kg/day, repeat administration): slightly less than dose proportional | exposure (AUC0-24h) versus dose ([2]; repeat oral administration): increased in an approximately dose-dependent manner | CYP2B6 induction (activity or mRNA expression) [3]: did not significantly induce activity or mRNA expression | CYP3A4 induction (activity or mRNA expression) [4]: did not significantly induce activity or mRNA expression | accumulation with repeated dosing [5]: No significant accumulation | exposure (AUC0-24h) versus dose ([5]; repeat oral administration): increased in an approximately dose-dependent manner | CYP1A2 direct inhibition [6]: did not directly inhibit | Tmax ([7]; human, plasma, po, 100 mg, patient plasma, oral (1-g) 100 mg QD, C1D1, n = 3, *median value, read-out: Tmax*): 12.7 h | AUC(0-t) ([7]; human, plasma, po, 100 mg, patient plasma, oral (1-g) 100 mg QD, C1D1, n = 3, mean, read-out: AUC0-24 h): 7570 ng·h/mL | Cmax ([7]; human, plasma, po, 100 mg, patient plasma, oral (1-g) 100 mg QD, C1D1, n = 3, mean, read-out: Cmax): 432 ng/mL | half-life ([7]; human, plasma, po, 100 mg, patient plasma, oral (1-g) 100 mg QD, C1D1, n = 3, mean, read-out: T½ (converted)): 20.2 h | AUC(0-t) ([7]; human, plasma, po, 100 mg, patient plasma, oral (1-g) 100 mg QD, C1D15 (steady state), n = 3, mean, read-out: AUC0-24 h): 19500 ng·h/mL | Cmax ([7]; human, plasma, po, 100 mg, patient plasma, oral (1-g) 100 mg QD, C1D15 (steady state), n = 3, mean, read-out: Cmax): 1010 ng/mL | Tmax ([7]; human, plasma, po, 100 mg, patient plasma, oral (1-g) 100 mg QD, C1D15, n = 3, *median value, read-out: Tmax*): 6.67 h | half-life ([7]; human, plasma, po, 100 mg, patient plasma, oral (1-g) 100 mg QD, C1D15, n = 3, mean, read-out: T½ (converted)): 32.1 h | Tmax ([7]; human, plasma, po, 200 mg, patient plasma, oral (1-g) 200 mg QD, C1D1, n = 12, *median value, read-out: Tmax*): 5.5 h | AUC(0-t) ([7]; human, plasma, po, 200 mg, patient plasma, oral (1-g) 200 mg QD, C1D1, n = 12, mean, read-out: AUC0-24 h): 11200 ng·h/mL | Cmax ([7]; human, plasma, po, 200 mg, patient plasma, oral (1-g) 200 mg QD, C1D1, n = 12, mean, read-out: Cmax): 630 ng/mL | half-life ([7]; human, plasma, po, 200 mg, patient plasma, oral (1-g) 200 mg QD, C1D1, n = 12, mean, read-out: T½ (converted)): 38.3 h | AUC(0-t) ([7]; human, plasma, po, 200 mg, patient plasma, oral (1-g) 200 mg QD, C1D15 (steady state), n = 12, mean, read-out: AUC0-24 h): 26000 ng·h/mL | Cmax ([7]; human, plasma, po, 200 mg, patient plasma, oral (1-g) 200 mg QD, C1D15 (steady state), n = 12, mean, read-out: Cmax): 1340 ng/mL | Tmax ([7]; human, plasma, po, 200 mg, patient plasma, oral (1-g) 200 mg QD, C1D15, n = 12, *median value, read-out: Tmax*): 4 h | half-life ([7]; human, plasma, po, 200 mg, patient plasma, oral (1-g) 200 mg QD, C1D15, n = 12, mean, read-out: T½ (converted)): 48.8 h | Tmax ([7]; human, plasma, po, 300 mg, patient plasma, oral (1-g) 300 mg QD, C1D1, n = 10, *median value, read-out: Tmax*): 5.8 h | AUC(0-t) ([7]; human, plasma, po, 300 mg, patient plasma, oral (1-g) 300 mg QD, C1D1, n = 10, mean, read-out: AUC0-24 h): 16600 ng·h/mL | Cmax ([7]; human, plasma, po, 300 mg, patient plasma, oral (1-g) 300 mg QD, C1D1, n = 10, mean, read-out: Cmax): 963 ng/mL | half-life ([7]; human, plasma, po, 300 mg, patient plasma, oral (1-g) 300 mg QD, C1D1, n = 10, mean, read-out: T½ (converted)): 31.2 h | AUC(0-t) ([7]; human, plasma, po, 300 mg, patient plasma, oral (1-g) 300 mg QD, C1D15 (steady state), n = 10, mean, read-out: AUC0-24 h): 41800 ng·h/mL | Cmax ([7]; human, plasma, po, 300 mg, patient plasma, oral (1-g) 300 mg QD, C1D15 (steady state), n = 10, mean, read-out: Cmax): 2190 ng/mL | Tmax ([7]; human, plasma, po, 300 mg, patient plasma, oral (1-g) 300 mg QD, C1D15, n = 10, *median value, read-out: Tmax*): 4.8 h | half-life ([7]; human, plasma, po, 300 mg, patient plasma, oral (1-g) 300 mg QD, C1D15, n = 10, mean, read-out: T½ (converted)): 32.9 h | Tmax ([7]; human, plasma, po, 400 mg, patient plasma, oral (1-g) 400 mg QD, C1D1, n = 6, *median value, read-out: Tmax*): 6 h | AUC(0-t) ([7]; human, plasma, po, 400 mg, patient plasma, oral (1-g) 400 mg QD, C1D1, n = 6, mean, read-out: AUC0-24 h): 18800 ng·h/mL | Cmax ([7]; human, plasma, po, 400 mg, patient plasma, oral (1-g) 400 mg QD, C1D1, n = 6, mean, read-out: Cmax): 1070 ng/mL | half-life ([7]; human, plasma, po, 400 mg, patient plasma, oral (1-g) 400 mg QD, C1D1, n = 6, mean, read-out: T½ (converted)): 30.4 h | Tmax ([7]; human, plasma, po, 400 mg, patient plasma, oral (1-g) 400 mg QD, C1D15, n = 5, *median value, read-out: Tmax*): 4.4 h | AUC(0-t) ([7]; human, plasma, po, 400 mg, patient plasma, oral (1-g) 400 mg QD, C1D15, n = 5, mean, read-out: AUC0-24 h): 45900 ng·h/mL | Cmax ([7]; human, plasma, po, 400 mg, patient plasma, oral (1-g) 400 mg QD, C1D15, n = 5, mean, read-out: Cmax): 2360 ng/mL | half-life ([7]; human, plasma, po, 400 mg, patient plasma, oral (1-g) 400 mg QD, C1D15, n = 5, mean, read-out: T½ (converted)): 44.9 h | Tmax ([7]; human, plasma, po, 600 mg, patient plasma, oral (1-g) 600 mg QD, C1D1, n = 4, *median value, read-out: Tmax*): 4.5 h | AUC(0-t) ([7]; human, plasma, po, 600 mg, patient plasma, oral (1-g) 600 mg QD, C1D1, n = 4, mean, read-out: AUC0-24 h): 26100 ng·h/mL | Cmax ([7]; human, plasma, po, 600 mg, patient plasma, oral (1-g) 600 mg QD, C1D1, n = 4, mean, read-out: Cmax): 1390 ng/mL | half-life ([7]; human, plasma, po, 600 mg, patient plasma, oral (1-g) 600 mg QD, C1D1, n = 4, mean, read-out: T½ (converted)): 40.9 h | Tmax ([7]; human, plasma, po, 600 mg, patient plasma, oral (1-g) 600 mg QD, C1D15, n = 4, *median value, read-out: Tmax*): 6 h | AUC(0-t) ([7]; human, plasma, po, 600 mg, patient plasma, oral (1-g) 600 mg QD, C1D15, n = 4, mean, read-out: AUC0-24 h): 48600 ng·h/mL | Cmax ([7]; human, plasma, po, 600 mg, patient plasma, oral (1-g) 600 mg QD, C1D15, n = 4, mean, read-out: Cmax): 2680 ng/mL | half-life ([7]; human, plasma, po, 600 mg, patient plasma, oral (1-g) 600 mg QD, C1D15, n = 4, mean, read-out: T½ (converted)): 27.6 h | AUC(0-t) ([7]; human, plasma, po, patients, 100-600 mg QD oral, read-out: AUC0-24h, range): 7570 to 48600 ng·h/mL | Cmax ([7]; human, plasma, po, patients, 100-600 mg QD oral, read-out: Cmax, range): 432 to 2680 ng/mL | half-life ([7]; human, plasma, po, patients, 100-600 mg QD oral, read-out: mean effective T1/2 at steady state, range): 20.2 to 48.8 h | Tmax ([7]; human, plasma, po, patients, 100-600 mg QD oral, read-out: median Tmax, range across the dose levels): 4 to 13 h | Cmax ([7]; patient plasma, oral (1-g) 100 mg QD, C1D15 (steady state), n = 3, mean): 1008.67 ng/mL | Cmax ([7]; patient plasma, oral (1-g) 200 mg QD, C1D15 (steady state), n = 12, mean): 1341.75 ng/mL | dose proportionality of pharmacokinetics ([7]; patients, FIGS. 4A, 4C, 4D): dose proportional relationship up to 400 mg but almost plateaued at 400 mg | Cmax and AUC0-24h versus dose ([7]; patients, preliminary results): dose-dependent increases | conversion to compound (1-h) in patients [7]: partially converted to compound (1-h) | conversion to compound (1-h) in patients ([7]; listed as 1-g): partially metabolized to form compound 1-h | metabolism by CYP3A5 [8]: weakly metabolized | NOAEL at 28 day [9]: 270 mg/kg/day
